Several values for one entry are separate records, joined by “and”; a condition that tells them apart may be missing. Equal entries are not always repeated. Where two headings read alike, the source gives them in different places.

Data set [1] addresses GABAA receptor. Particulars: rat brain membranes; read-out: Kd Standard; cited from earlier work.
Data set [2] deals with GABAA receptor. Briefly: Frontal chromatography on MR-SP, marker (3H)-FTZ. It is filed as binding, rat.
Procedure: (§1) Solubilization of rat brain tissue: All of the tissue from four rat brains was homogenized in 30 ml of Tris-HCl buffer (50 mM, pH 7.4) containing 5 mM EDTA, 3 mM benzamidine and 0.2 mM PMSF for 3×20 seconds using a Polytron homogenizer (Brinkman Instruments, Westbury, N.Y., USA) at setting 6. The mixture was kept in an ice bath for 20 seconds between each homogenization step to prevent excessive heating of the tissue. The homogenized brain tissue was centrifuged for 10 minutes at 4° C. at 35,000×g, and the supernatant was discarded. The pellet was suspended in 10 ml of Tris-HCl buffer (50 mM, pH 7.4) containing 100 mM NaCl, 2 mM MgCl2, 3 mM CaCl2, 5 mM KCl, 2% sodium cholate, and 10 μg/ml leupeptin. The resulting mixture was stirred for 12 hours at 4° C. and centrifuged at 35,000×g.
(§2) Immobilization of solubilized receptors: The supernatant (receptor-cholate suspension) was mixed with 200 mg of dried IAM-PC packing material and stirred gently for 1 hour at 25° C., transferred into dialysis tubing, and dialyzed for 48 hours at 4° C. against 3×600 ml of Tris-HCl buffer (50 mM, pH 7.4) containing 5 mM EDTA, 100 mM NaCl, 0.1 mM CaCl2 and 0.1 mM PMSF. […]
(§3) The value of Vmin can be determined by running (^3H)-EB in a series of concentration of drugs and plotting 1/(Vmax−V) versus 1/(drug) extrapolating to infinite (drug). […]
The target in data set [3] is Nicotinic Receptor. Conditions: read-out: Kd Standard, cited from earlier work.
Data set [4] has as its system NMDA receptor.
Procedure: as §1
Immobilization of solubilized receptors: The supernatant (receptor-cholate suspension) was mixed with 200 mg of dried IAM-PC packing material and stirred gently for 1 hour at 25° C., transferred into dialysis tubing, and dialyzed for 48 hours at 4° C. against 3×600 ml of Tris-HCl buffer (50 mM, pH 7.4) containing 5 mM EDTA, 100 mM NaCl, 0.1 mM CaCl2 and 0.1 mM PMSF.
The resulting mixture was centrifuged for 3 minutes at 4° C. at 32,000×g, and the supernatant was discarded. The pellet (MR-SP) was washed with Tris-HCl buffer (50 mM, pH 7.4) and centrifuged. This process was repeated until the supernatant was clear. The MR-SP was then collected.
Chromatographic procedures: The MR-SP (200 mg) was packed into a HR 5/2 glass column (Amersham Pharmacia Biotech, Uppsala, Sweden) to yield a 150 mm×5 mm (ID) chromatographic bed. The column was then connected to a P 1000 isocratic HPLC pump (Thermo Separations, San Jose, Calif., USA). The mobile phase consisted of Tris-HCl buffer (50 mM, pH 7.4) delivered at a flow rate 0.4 ml/min at room temperature.
In the chromatographic studies, a 50 ml sample Superloop (Amersham Pharmacia Biotech) was used to apply a series of (^3H)-marker ligand concentrations through the MR-SP column to obtain elution profiles showing front and plateau regions. […]
Data set [5] has as its target NCT receptor (Rattus norvegicus, UniProt P09483+P12390). It is filed as binding.
Procedure: as §1, §2, §3
Data set [6] deals with PGP (Homo sapiens, UniProt P08183). As to the kind of experiment: Frontal chromatography on open tubular PGP column (PGP-OTB).
Chain of PGP (P08183 whole entry): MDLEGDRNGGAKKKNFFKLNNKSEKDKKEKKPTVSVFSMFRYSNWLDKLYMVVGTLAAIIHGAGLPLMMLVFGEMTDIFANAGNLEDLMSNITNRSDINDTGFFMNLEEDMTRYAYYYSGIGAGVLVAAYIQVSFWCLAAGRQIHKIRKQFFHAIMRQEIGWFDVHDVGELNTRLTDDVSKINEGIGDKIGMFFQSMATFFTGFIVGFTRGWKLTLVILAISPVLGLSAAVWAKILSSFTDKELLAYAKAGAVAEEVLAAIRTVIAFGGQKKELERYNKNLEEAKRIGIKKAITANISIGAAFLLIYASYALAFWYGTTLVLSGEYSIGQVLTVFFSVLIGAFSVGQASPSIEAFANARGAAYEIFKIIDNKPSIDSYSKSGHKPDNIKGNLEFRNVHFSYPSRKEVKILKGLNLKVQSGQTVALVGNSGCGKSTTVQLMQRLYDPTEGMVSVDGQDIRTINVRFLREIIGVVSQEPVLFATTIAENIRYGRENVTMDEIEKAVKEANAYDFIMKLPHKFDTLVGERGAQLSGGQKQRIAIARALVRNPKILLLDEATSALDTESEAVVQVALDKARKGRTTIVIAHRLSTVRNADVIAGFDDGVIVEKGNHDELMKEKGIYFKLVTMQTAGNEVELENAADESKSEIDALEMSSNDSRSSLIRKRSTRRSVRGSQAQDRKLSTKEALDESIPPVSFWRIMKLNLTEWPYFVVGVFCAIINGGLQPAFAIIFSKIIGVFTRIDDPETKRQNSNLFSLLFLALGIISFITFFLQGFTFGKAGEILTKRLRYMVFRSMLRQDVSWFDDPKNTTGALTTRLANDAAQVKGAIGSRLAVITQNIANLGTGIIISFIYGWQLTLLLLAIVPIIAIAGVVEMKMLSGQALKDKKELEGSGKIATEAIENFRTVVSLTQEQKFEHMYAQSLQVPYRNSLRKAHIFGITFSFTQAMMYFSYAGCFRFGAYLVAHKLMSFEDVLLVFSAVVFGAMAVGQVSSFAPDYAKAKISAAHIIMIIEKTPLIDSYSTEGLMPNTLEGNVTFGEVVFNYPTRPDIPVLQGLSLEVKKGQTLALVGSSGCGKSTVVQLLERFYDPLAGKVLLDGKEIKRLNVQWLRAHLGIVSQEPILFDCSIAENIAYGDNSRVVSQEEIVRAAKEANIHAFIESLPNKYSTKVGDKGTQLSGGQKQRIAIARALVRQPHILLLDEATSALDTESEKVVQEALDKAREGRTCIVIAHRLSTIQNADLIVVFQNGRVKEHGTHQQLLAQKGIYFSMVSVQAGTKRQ
Procedure: Preparation of open tubular capillary: A 25 cm×100 u ID capillary was cleaned with 0.5 N NaOH running through for 40 minutes at low pressure followed by water for 20 minutes. Then placed in the oven at 95° C. for 30 minutes. Then APTS (90 parts water: 10 parts APTS) was run through the column for 5 minutes at high pressure and placed in the oven for 30 minutes. This was repeated and left overnight. The following morning, a 1% gluteraldehyde solution in PBS was then run through at high pressure for 30 minutes followed by air. Then avidin (10 mg in 4 mL 50 mM PBS) was run through for 3 minutes at high pressure. Then both tips were submerged in the avidin solution overnight at 4° C. It was determined at this stage that the column needs to be washed for 4-6 hours at 50 ul/min with Tris buffer prior to continuing to the next stage. The purpose being to remove any unbound avidin. A frontal study using a 5 mL sample of 0.5 nM ^3H-Vinblastin (RM062702002) was carried out to determine if vinblastin had specific binding to avidin.
Subsequently, a solution of 14 mM BioX (15 mg of BioX in 1 mL DMSO) was run through the column at high pressure for 10 minutes and left in the solution for 48 hours. A frontal study of 0.5 nM ^3H-Vinblastin (5 mL) was carried out on the BiotinX-Avidin labeled OT column to determine if any interactions between vinblastin and biotin could be seen. […]

Chain of NCT receptor (P12390 25-500): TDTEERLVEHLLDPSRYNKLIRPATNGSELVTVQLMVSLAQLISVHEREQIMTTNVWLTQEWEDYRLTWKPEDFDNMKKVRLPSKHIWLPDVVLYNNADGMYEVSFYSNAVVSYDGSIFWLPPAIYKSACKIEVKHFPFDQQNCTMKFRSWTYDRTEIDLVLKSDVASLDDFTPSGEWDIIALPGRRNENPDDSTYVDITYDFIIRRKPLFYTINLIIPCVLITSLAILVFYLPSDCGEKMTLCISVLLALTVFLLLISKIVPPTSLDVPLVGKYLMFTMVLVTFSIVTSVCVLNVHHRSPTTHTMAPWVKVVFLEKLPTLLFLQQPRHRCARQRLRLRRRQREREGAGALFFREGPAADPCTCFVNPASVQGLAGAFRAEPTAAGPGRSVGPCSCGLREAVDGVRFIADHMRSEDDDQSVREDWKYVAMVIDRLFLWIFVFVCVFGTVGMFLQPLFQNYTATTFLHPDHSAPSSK
Chain of NCT receptor (P09483 31-630): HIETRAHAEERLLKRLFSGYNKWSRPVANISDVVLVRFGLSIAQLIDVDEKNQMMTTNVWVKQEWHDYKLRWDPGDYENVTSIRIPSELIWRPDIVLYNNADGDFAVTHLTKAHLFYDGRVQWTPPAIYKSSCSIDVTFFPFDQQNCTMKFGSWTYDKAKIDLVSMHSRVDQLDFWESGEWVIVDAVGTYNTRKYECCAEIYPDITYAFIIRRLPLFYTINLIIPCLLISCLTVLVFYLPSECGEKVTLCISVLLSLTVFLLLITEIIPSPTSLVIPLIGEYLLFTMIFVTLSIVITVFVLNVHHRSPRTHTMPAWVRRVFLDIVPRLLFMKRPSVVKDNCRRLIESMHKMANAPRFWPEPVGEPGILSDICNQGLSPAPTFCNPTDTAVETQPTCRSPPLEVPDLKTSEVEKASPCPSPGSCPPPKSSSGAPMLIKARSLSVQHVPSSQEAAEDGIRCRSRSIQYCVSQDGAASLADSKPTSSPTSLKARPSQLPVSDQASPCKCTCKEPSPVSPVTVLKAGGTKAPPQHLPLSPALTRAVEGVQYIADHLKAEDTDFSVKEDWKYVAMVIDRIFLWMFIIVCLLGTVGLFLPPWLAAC

As to `CN1C(=O)CN=C(c2ccccc2)c2cc(Cl)ccc21` [Diazepam], the Kd is 1.3 nM in data set [1] and 1 nM in data set [2] (MR-SP from rat brain, 25 pM (3H)-FTZ marker, Tris-HCl 50 mM pH 7.4).

In the case of `Clc1ccc(C2CC3CCC2N3)cn1` (stereo not shown) [Epibatidine], the Kd in data set [3] (rat brain membranes) is 0.05 nM.

Consider `CN[C@H](CC(=O)O)C(=O)O` [NMDA, N-methyl D-aspartate], for which, in data set [4] (displacer 1 mM to 2 mM in chromatographic buffer), the “Displacement of (3H)-MK-801” value is given as “able to specifically displace”. For the same compound, in data set [4] (read-out: Kd Frontal, MR-SP, 2 nM (3H)-MK-801 marker, 1 μM L-glutamate and 1 μM glycine, two determinations (FIG. 2A, 2B)), the Kd is 1.2 nM and 0.6 nM.

In the case of `CN1CCCC1c1cccnc1` (stereo not shown) [Nicotine], the Kd in data set [3] is 0.8 nM. The “Effect on elution (breakthrough) volume of 60 pM (3H)-EB” value in data set [5] is “reduction in the breakthrough volume”. Moreover, the “Effect on elution volume of 25 pM (3H)-FTZ” value in data set [2] (ligand at 1 μM in mobile phase) is given as “no decrease in the elution volume”.

For `CC[C@]1(O)C[C@@H]2CN(CCc3c([nH]c4ccccc34)[C@@](C(=O)OC)(c3cc4c(cc3OC)N(C)[C@H]3[C@@](O)(C(=O)OC)[C@H](OC(C)=O)[C@]5(CC)C=CCN6CC[C@]43[C@@H]65)C2)C1` [Vinblastin], in data set [6] (not told), the “Bmax (binding sites on the PGP-OTB column)” value was determined as 3 mmol. Also, in data set [6] (read-out: Kd for the PGP-OTB column, 0.5 nM 3H-Vinblastin marker, r2 0.902), the Kd is 97 nM.

The Kd is the concentration at which binding is half-saturated.

The record behind these values is US20030166301A1, “Multiple binding moiety chromatography device, methods of using and methods of making same” (priority 2001, published 2003).
